Where two headings read alike, the source gives them in different places.
Key:
[1] = test system: MAC formation in normal human serum; assay: Human serum MAC formation assay (zymosan-coated plates, 50% normal human serum); conditions: 50% normal human serum with EGTA, 37° C. 30 minutes
Description: MAC deposition assay using normal human serum was applied to evaluate compound potency under physiologically relevant conditions. Black Maxisorp plates (Thermo Fisher, 437111) were coated with preactivated zymosan (Complement Technology, B400) at 0.5 mg/mL in carbonate buffer (pH 9.5, Sigma, C3041) at room temperature overnight. Compounds were serial diluted 3-fold in 100% DMSO for a 10-point dose-response curve. Normal human serum (Complement Technology, NHS) was diluted to 50% (v/v) with the gelatin buffer (4.2 mM HEPES pH 7.4, 0.15 mM CaCl2, 141 mM NaCl, 4.5 mM MgCl2, 0.1% gelatin) containing 20 mM EGTA or 20 mM EDTA. In conical bottom 96-well plates, 1 μL compound and 99 μL of serum-EGTA were mixed. Serum-EDTA was used as baseline control. The serum-compound mixture was incubated at room temperature for 15 minutes before being transferred to the washed zymosan plate for complement activation at 37° C. for 30 minutes. The reaction was terminated by decanting the reaction mixture and adding blocking buffer (Thermo Fisher, 37539) for 20 minutes. MAC formation on the ELISA plate was detected using 0.2 μg/mL mouse anti-human C9 neoepitope monoclonal antibody (Thermo Fisher, MA5-33373) diluted in phosphate-buffered saline with 0.05% Tween-20 (PBST). A goat anti-mouse IgG-HRP antibody (Thermo Fisher, A16072) was used at 1:2000 in PBST as secondary antibody. After washing, the reaction was developed using QuantaBlu (Thermo Fisher, 15169) for 20 minutes at room temperature. The plates were read at 325 nm excitation and 420 nm emission wavelengths. Percent inhibition values were generated using the baseline (EDTA-serum) and the maximum control (EGTA-serum). An IC50 for each compound was calculated using 4-parameter logistic regression.

[2] = molecular target: human C3bBb (Homo sapiens (Human), UniProt P00751); assay: Human C3bBb enzyme assay (C3a generation from C3, ELISA); type: biochemical; conditions: read-out: Human C3b:Bb IC50 Avg
Chain of human C3bBb (P00751 260-764): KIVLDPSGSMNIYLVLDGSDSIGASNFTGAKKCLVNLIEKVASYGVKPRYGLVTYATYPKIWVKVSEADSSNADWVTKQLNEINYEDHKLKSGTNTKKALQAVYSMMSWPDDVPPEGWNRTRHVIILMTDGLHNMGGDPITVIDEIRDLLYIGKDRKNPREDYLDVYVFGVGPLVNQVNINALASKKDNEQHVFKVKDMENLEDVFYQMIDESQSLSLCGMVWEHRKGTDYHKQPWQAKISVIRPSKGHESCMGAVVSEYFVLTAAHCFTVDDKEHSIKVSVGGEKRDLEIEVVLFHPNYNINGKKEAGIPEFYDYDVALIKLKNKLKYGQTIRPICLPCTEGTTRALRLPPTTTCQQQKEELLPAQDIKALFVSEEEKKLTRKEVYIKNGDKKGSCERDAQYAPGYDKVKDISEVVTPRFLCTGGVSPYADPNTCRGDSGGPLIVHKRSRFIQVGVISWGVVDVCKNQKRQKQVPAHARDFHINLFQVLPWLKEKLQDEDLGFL
Chain of human C3bBb (P01024 23-667 partner): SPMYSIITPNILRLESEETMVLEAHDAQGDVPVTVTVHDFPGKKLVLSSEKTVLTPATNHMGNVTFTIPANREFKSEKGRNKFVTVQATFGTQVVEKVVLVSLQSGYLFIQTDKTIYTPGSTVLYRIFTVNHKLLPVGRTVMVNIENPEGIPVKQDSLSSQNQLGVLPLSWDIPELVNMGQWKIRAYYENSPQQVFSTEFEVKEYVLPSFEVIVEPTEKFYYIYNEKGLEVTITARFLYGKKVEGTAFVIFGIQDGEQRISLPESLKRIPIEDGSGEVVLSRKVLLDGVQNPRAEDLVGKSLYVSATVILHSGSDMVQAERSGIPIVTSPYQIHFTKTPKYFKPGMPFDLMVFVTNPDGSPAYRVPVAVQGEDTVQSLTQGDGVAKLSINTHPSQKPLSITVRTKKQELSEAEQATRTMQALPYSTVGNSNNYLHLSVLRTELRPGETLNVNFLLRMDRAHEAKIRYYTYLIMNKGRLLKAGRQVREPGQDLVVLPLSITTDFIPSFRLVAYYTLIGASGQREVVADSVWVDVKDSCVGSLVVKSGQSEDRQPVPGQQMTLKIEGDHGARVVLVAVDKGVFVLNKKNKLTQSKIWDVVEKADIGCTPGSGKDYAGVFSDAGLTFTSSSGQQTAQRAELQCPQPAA
Chain of human C3bBb (P01024 749-1663 partner): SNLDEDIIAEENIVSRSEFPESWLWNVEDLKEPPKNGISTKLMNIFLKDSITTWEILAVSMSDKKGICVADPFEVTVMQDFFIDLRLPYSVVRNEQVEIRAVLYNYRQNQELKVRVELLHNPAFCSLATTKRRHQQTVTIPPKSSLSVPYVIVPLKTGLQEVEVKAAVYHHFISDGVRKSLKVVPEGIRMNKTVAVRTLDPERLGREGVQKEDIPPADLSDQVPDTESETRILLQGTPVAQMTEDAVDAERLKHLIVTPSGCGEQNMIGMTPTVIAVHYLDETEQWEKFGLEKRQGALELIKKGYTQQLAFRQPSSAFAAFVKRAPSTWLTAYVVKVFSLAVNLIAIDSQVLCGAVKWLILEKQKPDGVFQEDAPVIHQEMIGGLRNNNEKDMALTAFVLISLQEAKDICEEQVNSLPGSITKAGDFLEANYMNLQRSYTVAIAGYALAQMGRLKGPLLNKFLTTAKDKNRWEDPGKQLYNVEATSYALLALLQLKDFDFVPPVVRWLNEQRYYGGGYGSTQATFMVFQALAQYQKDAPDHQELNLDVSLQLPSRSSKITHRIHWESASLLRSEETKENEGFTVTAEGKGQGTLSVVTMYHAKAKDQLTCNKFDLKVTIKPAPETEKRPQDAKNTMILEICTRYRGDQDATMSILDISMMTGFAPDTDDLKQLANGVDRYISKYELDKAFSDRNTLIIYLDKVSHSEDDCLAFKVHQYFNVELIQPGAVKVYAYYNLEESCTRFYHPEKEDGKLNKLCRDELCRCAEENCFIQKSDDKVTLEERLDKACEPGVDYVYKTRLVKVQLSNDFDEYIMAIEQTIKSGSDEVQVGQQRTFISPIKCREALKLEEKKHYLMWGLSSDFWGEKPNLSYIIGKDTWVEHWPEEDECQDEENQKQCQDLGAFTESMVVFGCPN
Description: Compounds disclosed herein were evaluated for their potency to inhibit human C3bBb in a biochemical assay. To generate active C3bBb complex in vitro, purified human C3b (Complement Technology, A114), CFB (Complement Technology, A135) and CFD (Complement Technology, A136) were mixed in a 1:1:1 ratio to a final concentration of 1 μM each in the C3bBb assay buffer (PBS pH 7.4, 100 μM NiCl2, 0.05% (w/v) CHAPS). The reaction mix was incubated at room temperature for 30 minutes on a rotating platform. […] On the day of the enzyme assay, a reaction mixture containing 3 nM C3bBb complex and 1 μM purified human C3 (Complement Technology, A113) was prepared in the C3bBb assay buffer. Compounds were serial diluted 3-fold in 100% DMSO for a 10-point dose-response curve. A 0.5 μL aliquot of diluted compound solution was transferred to a conical bottom 96-well plate, before 49.5 μL of the reaction mix was added to each well to initiate the reaction. The plate was incubated for 1 hour at room temperature. […] The generation of C3a from C3 by the C3bBb complex was measured using the MicroVue C3a Plus EIA ELISA kit (Quidel, A031). The concentration of C3a from each well was calculated using a standard curve. Percent inhibition values were generated using the baseline (C3 only) and the maximum control (DMSO instead of compound), and IC50 of each compound was calculated using 4-parameter logistic regression.

[3] = starred values: assay conducted with 1 nM C3b:Bb enzyme
[4] = 3 nM C3bBb complex, 1 μM human C3, 1 hour room temperature

| Structure (SMILES) | IC50 [1] [nM] | IC50 [2, 3] [nM] | IC50 [2, 4] [nM] |
| --- | --- | --- | --- |
| COc1cc(C)c2[nH]ccc2c1CN1CC[C@H](OC(F)F)C[C@H]1c1ccc(C(=O)O)cc1 [Example 28, 4-((2S,4S)-4-(difluoromethoxy)-1-((5-methoxy-7-methyl-1H-indol-4-yl)methyl)piperidin-2-yl)benzoic acid] | 100 to 200 | < 10 |  |
| COc1cc(C)c2[nH]ccc2c1CN1CC[C@H](N2CC(S(C)(=O)=O)C2)C[C@H]1c1ccc(C(=O)O)cc1 [Example 79, 4-((2S,4S)-1-((5-methoxy-7-methyl-1H-indol-4-yl)methyl)-4-(3-(methylsulfonyl)azetidin-1-yl)piperidin-2-yl)benzoic acid] | 100 to 200 | 50 to 100 |  |
| COc1cc(C)c2[nH]ccc2c1CN1CC[C@H](N2CC(F)C2)C[C@H]1c1ccc(C(=O)O)cc1 [Example 80, 4-((2S,4S)-4-(3-fluoroazetidin-1-yl)-1-((5-methoxy-7-methyl-1H-indol-4-yl)methyl)piperidin-2-yl)benzoic acid] | 200 to 300 | 25 to 50 |  |
| COc1cc(C)c2[nH]ccc2c1CN1CC[C@H](NC2COC2)C[C@H]1c1ccc(C(=O)O)cc1 (racemic) [Example 17, (+)-trans-4-(1-((5-methoxy-7-methyl-1H-indol-4-yl)methyl)-4-(oxetan-3-ylamino)piperidin-2-yl)benzoic acid] | 100 to 200 |  | 10 to 25 |
| COc1cc(C)c2[nH]ccc2c1CN1CC[C@H](n2cccn2)C[C@H]1c1ccc(C(=O)O)cc1 (racemic) [Example 9, (±)-trans-4-(1-((5-methoxy-7-methyl-1H-indol-4-yl)methyl)-4-(1H-pyrazol-1-yl)piperidin-2-yl)benzoic acid] | > 500 |  | > 100 |
| Cc1cc(C2CC2)c(CN2CC[C@H](N3CC(C(F)(F)F)C3)C[C@H]2c2ccc(C(=O)O)cc2)c2cc[nH]c12 [Example 76, 4-((2S,4S)-1-((5-cyclopropyl-7-methyl-1H-indol-4-yl)methyl)-4-(3-(trifluoromethyl)azetidin-1-yl)piperidin-2-yl)benzoic acid] | 100 to 200 | < 10 |  |
| COc1cc(C)c2[nH]ccc2c1CN1CC[C@H](NCC(F)(F)F)C[C@H]1c1ccc(C(=O)O)cc1 [Example 15, 4-((2S,4S)-1-((5-methoxy-7-methyl-1H-indol-4-yl)methyl)-4-((2,2,2-trifluoroethyl)amino)piperidin-2-yl)benzoic acid] | < 100 | < 10 |  |
| COc1cc(C)c2[nH]ccc2c1CN1CC[C@]2(C[C@H]1c1ccc(C(=O)O)cc1)C[C@@H](F)C2 (single isomer, unassigned) [Example 63, 4-((2R,4s,6S)-2-fluoro-7-((5-methoxy-7-methyl-1H-indol-4-yl)methyl)-7-azaspiro[3.5]nonan-6-yl)benzoic acid or 4-((2S,4r,6S)-2-fluoro-7-((5-methoxy-7-methyl-1H-indol-4-yl)methyl)-7-azaspiro[3.5]nonan-6-yl)benzoic acid] | < 100 | < 10 |  |
| COc1cc(C)c2[nH]ccc2c1CN1CC[C@]2(C[C@H]1c1ccc(C(=O)O)cc1)C[C@@H](C(F)(F)F)C2 (single isomer, unassigned) [Example 48, 4-((2R,4s,6S)-7-((5-methoxy-7-methyl-1H-indol-4-yl)methyl)-2-(trifluoromethyl)-7-azaspiro[3.5]nonan-6-yl)benzoic acid or 4-((2S,4r,6S)-7-((5-methoxy-7-methyl-1H-indol-4-yl)methyl)-2-(trifluoromethyl)-7-azaspiro[3.5]nonan-6-yl)benzoic acid] | < 100 | < 10 |  |
| COc1cc(C)c2[nH]ccc2c1CN1CC[C@]2(C[C@H]1c1ccc(C(=O)O)cc1)C[C@@H](C#N)C2 (single isomer, unassigned) [Example 52, 4-((2R,4s,6S)-2-cyano-7-((5-methoxy-7-methyl-1H-indol-4-yl)methyl)-7-azaspiro[3.5]nonan-6-yl)benzoic acid or 4-((2S,4r,6S)-2-cyano-7-((5-methoxy-7-methyl-1H-indol-4-yl)methyl)-7-azaspiro[3.5]nonan-6-yl)benzoic acid] | < 100 | < 10 |  |
| COc1cc(C)c2[nH]cc(Cl)c2c1CN1CCC2(C[C@H]1c1ccc(C(=O)O)cc1)CC(F)(F)C2 [Example 53, (S)-4-(7-((3-chloro-5-methoxy-7-methyl-1H-indol-4-yl)methyl)-2,2-difluoro-7-azaspiro[3.5]nonan-6-yl)benzoic acid] | < 100 | < 10 |  |
| COc1cc(C)c2[nH]ccc2c1CN1CC2(CCCC2)C1c1ccc(C(=O)O)cc1 (racemic) [Example 39, (±)-4-(2-((5-methoxy-7-methyl-1H-indol-4-yl)methyl)-2-azaspiro[3.4]octan-1-yl)benzoic acid] | 300 to 500 |  | > 100 |
| COc1cc(C)c2[nH]ccc2c1CN1CC[C@H](n2cc(C#N)cn2)C[C@H]1c1ccc(C(=O)O)cc1 [Example 10, 4-((2S,4S)-4-(4-cyano-1H-pyrazol-1-yl)-1-((5-methoxy-7-methyl-1H-indol-4-yl)methyl)piperidin-2-yl)benzoic acid] | 300 to 500 |  | 50 to 100 |
| COc1cc(C)c2[nH]ccc2c1CN1CC[C@H](NCC(F)(F)F)C[C@H]1c1ccc(C(=O)O)cc1 (racemic) [Example 14, (+)-trans-4-(1-((5-methoxy-7-methyl-1H-indol-4-yl)methyl)-4-((2,2,2-trifluoroethyl)amino)piperidin-2-yl)benzoic acid] | 100 to 200 |  | 10 to 25 |
| COc1cc(C)c2[nH]ccc2c1CN1CC[C@H](N2CC(OC(F)(F)F)C2)C[C@H]1c1ccc(C(=O)O)cc1 [Example 72, 4-((2S,4S)-1-((5-methoxy-7-methyl-1H-indol-4-yl)methyl)-4-(3-(trifluoromethoxy)azetidin-1-yl)piperidin-2-yl)benzoic acid] | 200 to 300 | 25 to 50 |  |
| COc1cc(C)c2[nH]ccc2c1CN1CC[C@H](n2cc(C(F)(F)F)cn2)C[C@H]1c1ccc(C(=O)O)cc1 [Example 4, 4-((2S,4S)-1-((5-methoxy-7-methyl-1H-indol-4-yl)methyl)-4-(4-(trifluoromethyl)-1H-pyrazol-1-yl)piperidin-2-yl)benzoic acid] | 200 to 300 |  | < 10 |
| COc1cc(C)c2[nH]ccc2c1CN1CC[C@H](OC2CCC2)C[C@H]1c1ccc(C(=O)O)cc1 [Example 84, 4-((2S,4S)-4-cyclobutoxy-1-((5-methoxy-7-methyl-1H-indol-4-yl)methyl)piperidin-2-yl)benzoic acid] | 200 to 300 | 25 to 50 |  |
| COc1cc(C)c2[nH]ccc2c1CN1CC[C@]2(C[C@H]1c1ccc(C(=O)O)cc1)C[C@@](C)(O)C2 (single isomer, unassigned) [Example 60, 4-((2R,4s,6S)-2-hydroxy-7-((5-methoxy-7-methyl-1H-indol-4-yl)methyl)-2-methyl-7-azaspiro[3.5]nonan-6-yl)benzoic acid or 4-((2S,4r,6S)-2-hydroxy-7-((5-methoxy-7-methyl-1H-indol-4-yl)methyl)-2-methyl-7-azaspiro[3.5]nonan-6-yl)benzoic acid] | 100 to 200 | 10 to 25 |  |
| COc1cc(C)c2[nH]ccc2c1CN1CC[C@H](NC2CCC2)C[C@H]1c1ccc(C(=O)O)cc1 [Example 20, 4-((2S,4S)-4-(cyclobutylamino)-1-((5-methoxy-7-methyl-1H-indol-4-yl)methyl)piperidin-2-yl)benzoic acid] | 300 to 500 |  | 25 to 50 |

— patent publication US20250289804A1, “SUBSTITUTED INDOLE COMPOUNDS AND METHODS OF USE THEREOF” (NOVARTIS PHARMA AG, priority 2021, published 2025)
